Results published in ChEMBL document CHEMBL3352103, “Investigations of amide bond variation and biaryl modification in analogues of α7 nAChR agonist SEN12333” (Eur J Med Chem, 2014).

Assays:
[1] = target: T1, Neuronal acetylcholine receptor subunit alpha-7 (Rattus norvegicus, UniProt Q05941); assay: Displacement of [3H]EB from rat nAChR alpha7 expressed in HEK293 cell membranes by liquid scintillation counting
[2] = target: Neuronal acetylcholine receptor; alpha4/beta2 (Rattus norvegicus, UniProt P09483+P12390); assay: Displacement of [3H]EB from rat nAChR alpha4beta2 expressed in HEK293 cell membranes by liquid scintillation counting
Chain of Neuronal acetylcholine receptor; alpha4/beta2 (P09483 whole entry): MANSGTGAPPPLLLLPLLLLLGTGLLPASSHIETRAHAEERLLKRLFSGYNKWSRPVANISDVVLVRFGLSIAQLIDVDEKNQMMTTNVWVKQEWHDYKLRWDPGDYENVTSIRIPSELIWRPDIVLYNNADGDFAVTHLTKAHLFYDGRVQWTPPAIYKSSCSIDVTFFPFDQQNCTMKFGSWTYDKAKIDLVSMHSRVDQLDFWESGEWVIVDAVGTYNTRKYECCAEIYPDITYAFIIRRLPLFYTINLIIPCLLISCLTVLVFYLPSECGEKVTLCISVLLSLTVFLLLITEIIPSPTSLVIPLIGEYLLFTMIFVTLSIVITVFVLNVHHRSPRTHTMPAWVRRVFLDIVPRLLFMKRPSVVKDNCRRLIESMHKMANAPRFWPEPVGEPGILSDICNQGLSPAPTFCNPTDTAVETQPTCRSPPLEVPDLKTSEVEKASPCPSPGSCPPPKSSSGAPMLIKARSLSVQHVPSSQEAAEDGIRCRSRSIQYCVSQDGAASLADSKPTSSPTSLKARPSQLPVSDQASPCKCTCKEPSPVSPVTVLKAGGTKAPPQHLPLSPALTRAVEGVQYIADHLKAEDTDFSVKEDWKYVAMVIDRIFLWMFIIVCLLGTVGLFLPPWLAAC
Chain of Neuronal acetylcholine receptor; alpha4/beta2 (P12390 whole entry): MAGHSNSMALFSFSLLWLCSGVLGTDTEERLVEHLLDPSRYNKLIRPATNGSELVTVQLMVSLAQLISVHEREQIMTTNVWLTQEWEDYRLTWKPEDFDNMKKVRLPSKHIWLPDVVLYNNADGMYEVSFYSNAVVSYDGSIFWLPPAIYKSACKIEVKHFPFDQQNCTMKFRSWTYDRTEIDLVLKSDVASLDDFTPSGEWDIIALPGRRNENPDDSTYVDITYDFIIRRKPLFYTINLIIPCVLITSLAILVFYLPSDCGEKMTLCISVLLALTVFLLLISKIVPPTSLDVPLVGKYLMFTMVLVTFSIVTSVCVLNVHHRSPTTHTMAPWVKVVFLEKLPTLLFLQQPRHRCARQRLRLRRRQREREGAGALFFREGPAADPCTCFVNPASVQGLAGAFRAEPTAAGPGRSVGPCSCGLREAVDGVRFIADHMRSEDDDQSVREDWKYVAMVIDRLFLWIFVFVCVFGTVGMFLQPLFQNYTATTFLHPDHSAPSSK

[3] = target: Neuronal acetylcholine receptor; alpha3/beta4 (Rattus norvegicus, UniProt P04757+P12392); assay: Displacement of [3H]EB from rat nAChR alpha3beta4 expressed in HEK293 cell membranes by liquid scintillation counting
Chain of Neuronal acetylcholine receptor; alpha3/beta4 (P04757 whole entry): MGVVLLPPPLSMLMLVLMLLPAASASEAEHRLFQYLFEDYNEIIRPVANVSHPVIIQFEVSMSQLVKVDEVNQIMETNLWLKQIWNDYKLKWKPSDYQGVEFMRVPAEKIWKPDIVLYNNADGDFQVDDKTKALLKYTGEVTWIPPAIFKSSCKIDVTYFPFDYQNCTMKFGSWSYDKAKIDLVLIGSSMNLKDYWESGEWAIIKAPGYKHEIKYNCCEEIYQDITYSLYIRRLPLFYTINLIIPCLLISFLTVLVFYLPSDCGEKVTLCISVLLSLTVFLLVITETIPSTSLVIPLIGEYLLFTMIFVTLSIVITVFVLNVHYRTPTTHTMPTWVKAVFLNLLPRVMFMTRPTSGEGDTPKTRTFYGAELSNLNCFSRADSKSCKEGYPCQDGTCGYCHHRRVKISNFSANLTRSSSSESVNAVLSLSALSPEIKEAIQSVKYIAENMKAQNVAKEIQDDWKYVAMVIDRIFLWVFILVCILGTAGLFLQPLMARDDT
Chain of Neuronal acetylcholine receptor; alpha3/beta4 (P12392 whole entry): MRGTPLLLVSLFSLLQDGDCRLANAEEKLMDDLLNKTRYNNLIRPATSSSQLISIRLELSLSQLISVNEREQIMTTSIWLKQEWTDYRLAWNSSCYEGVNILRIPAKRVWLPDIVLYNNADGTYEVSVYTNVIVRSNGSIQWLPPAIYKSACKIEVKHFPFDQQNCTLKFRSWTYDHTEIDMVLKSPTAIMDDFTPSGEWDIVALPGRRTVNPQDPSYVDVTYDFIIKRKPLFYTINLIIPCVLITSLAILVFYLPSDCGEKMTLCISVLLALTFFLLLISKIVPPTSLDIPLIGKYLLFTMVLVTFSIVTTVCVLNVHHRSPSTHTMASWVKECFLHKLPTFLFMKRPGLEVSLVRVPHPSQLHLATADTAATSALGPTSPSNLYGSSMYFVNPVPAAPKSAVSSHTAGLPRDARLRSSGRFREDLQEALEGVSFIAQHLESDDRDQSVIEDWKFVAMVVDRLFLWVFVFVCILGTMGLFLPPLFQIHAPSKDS

[4] = target: T1, Neuronal acetylcholine receptor subunit alpha-7; assay: Agonist activity at rat nAChR alpha7 expressed in GH4C1 cells by fluorescent calcium assay; format: cell-based, GH4-C1

T1 sequence (Q05941 whole entry): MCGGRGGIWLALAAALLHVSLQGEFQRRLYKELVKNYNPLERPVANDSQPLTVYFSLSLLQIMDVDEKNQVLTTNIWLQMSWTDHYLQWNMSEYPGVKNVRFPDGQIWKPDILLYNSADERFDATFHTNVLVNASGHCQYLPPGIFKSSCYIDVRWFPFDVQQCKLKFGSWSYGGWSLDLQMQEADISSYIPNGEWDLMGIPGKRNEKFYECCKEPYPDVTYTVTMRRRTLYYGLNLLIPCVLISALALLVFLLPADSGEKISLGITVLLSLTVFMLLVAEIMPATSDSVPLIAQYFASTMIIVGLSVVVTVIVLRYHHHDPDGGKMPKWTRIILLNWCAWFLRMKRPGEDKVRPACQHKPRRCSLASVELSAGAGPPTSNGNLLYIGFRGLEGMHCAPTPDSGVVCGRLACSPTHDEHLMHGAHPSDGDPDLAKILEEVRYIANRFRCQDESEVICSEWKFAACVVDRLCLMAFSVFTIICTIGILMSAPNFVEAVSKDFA

Ki [1] [µM]	Ki ([2]; read-out: Ki) [µM]	Ki ([3]; read-out: Ki) [µM]	EC50 ([4]; read-out: EC50) [µM]	EC50 ([4]; gh4-c1)	Ki ([2]; hek293)	Ki ([3]; hek293)	Compound
0.67	> 10	> 10	0.86				O=C(CCCCN1CCOCC1)Nc1ccc(-c2cccnc2)cc1
2.3	> 10	> 10	1.75				O=C(CCCCN1CCOCC1)Nc1ccc(-c2ccccc2)cc1
11	> 10	> 10		Not Active			O=C(NCCCCN1CCOCC1)c1ccc(-c2cccnc2)cc1
1.8	> 10	> 10	2.37				O=C(NCCCCN1CCOCC1)c1ccc(-c2ccccc2)cc1
216				Not Active	Not Active	Not Active	c1cncc(-c2ccc(-n3nnnc3CCCCN3CCOCC3)cc2)c1
236		> 1000		Not Active	Not Active		c1ccc(-c2ccc(-n3nnnc3CCCCN3CCOCC3)cc2)cc1
165		> 1000		Not Active	Not Active		c1cncc(-c2ccc(-c3nnnn3CCCCN3CCOCC3)cc2)c1
156		> 100		Not Active	Not Active		c1ccc(-c2ccc(-c3nnnn3CCCCN3CCOCC3)cc2)cc1
